Assay results published in patent publication US10738002B2, “Halogenated benzotropolones as ATG4B inhibitors” (Universiteit Antwerpen, priority 2016, dated 2020).
Read-outs that look alike come from different tables or passages of the source.

Experiments:
[1] = Plasma stability in mouse plasma; assay type: in vitro ADME; details: for recovery at 1 h, 50 µM: Non Swiss Albino, 37° C., read-out: Plasma stability (mouse) recovery of parent compound after lh (%); for plasma stability compared to the non-halogenated analogues: comparison in words
Experimental: A 10 mM compound solution was prepared in DMSO (Acros). A 5 μL aliquot was added to 995 μL of mouse plasma (Non Swiss Albino Mouse Plasma, sodium citrate, DivBioScience, IMS-N) to obtain a final solution of 50 μM. The mixture was gently shaken for 6 hours at 37° C. Aliquots of 100 μL were taken at various time points (0, 30, 60, 120, 180, 360 minutes) and diluted with 400 μL of cold methanol (Sigma-Aldrich) (stored at 4° C.). The suspension was centrifuged at 14000 rpm for 5 minutes. Afterwards, 50 μL of the supernatant was diluted with 950 μL of methanol and analyzed with LC-MS/MS (Waters Acquity H-class UPLC system with ion trap mass spectrometer, Bruker Daltonics Esquire 3000 plus, and Agilent 1100 Series LC system). The samples were analyzed in triplicate. A standard curve was plotted using compound concentrations of 3.12-100 μM in mouse plasma.

[2] = Metabolic stability in mouse microsomes; assay type: in vitro ADME; details: for recovery at 30 min, 10 µM: mouse liver microsomes, read-out: Microsomal stability (mouse) recovery of parent compound after 30 min (%); for microsomal stability, comparison in words: mouse microsomes
Experimental: A 5 mM compound solution was prepared in DMSO. A mixture of 713 μL milliQ water (Milli-Q Direct 8, Merck Millipore), 200 μL 0.5 M phosphate buffer (BD Diagnostic Systems, 257385), 50 μL NADPH regenerating system solution A (BD Biosciences), 10 μL NADPH regenerating system solution B (BD Biosciences) and 2 μL compound solution was prepared and heated for 5 min at 37° C. 25 μL of liver microsomes (Corning B.V. Life Sciences) was added to the mixture and 20 μL samples were withdrawn at 0, 15, 30, 60, 120, 240 and 360 minutes. 80 μL (4×20 μL) of cold acetonitrile (Sigma-Aldrich) was added to the samples on ice for 10 minutes. Afterwards, the mixtures were centrifuged at 13000 rpm for 5 minutes at 4° C. A volume of 75 μL of an acetonitrile/water (10/90) mixture was added to 25 μL supernatant and the obtained samples were analyzed by LC-MS/MS in triplicate.

Jurkat T-cells = assay: CYTO-ID-based phenotypical screening for autophagy inhibition; assay type: cell-based; details: Homo sapiens, tested at 10 mM concentration + 10 μM everolimus, everolimus-treated = 1 (normalized), control 0.37, read-out: CYTOID assay (autophagy relative to the everolimus-treated group)
Experimental: Final compounds were screened for autophagy/Atg4B inhibition in 3 different assays: a gel-based screening for Atg4B inhibition, a CYTO-ID-based phenotypical screening for autophagy inhibition and a luciferase reporter assay for assessment of intracellular Atg4B inhibition. Initially, all compounds were evaluated using the SDS-PAGE-based screening assay. Each test compound was incubated with [LC3B-GST], a fusion protein of LC3B and glutathione-S-transferase, and Atg4B in Tris-HCl buffer for a fixed time period. Afterwards, residual fusion protein and cleavage products were separated by gel electrophoresis and quantified using optical densitometry. Based on the % of uncleaved substrate, compound activity was expressed as % enzyme inhibition at 500 μM compound concentration. A set of compounds was then subjected to a CYTO ID-based assay (Stankov et al., 2014). This assay is based on selective labelling of autophagic vacuoles in Jurkat T-cells. Quantification of the stained autophagic compartments can then be used for assessment of autophagy modulation. Autophagy induction was obtained by addition of 10 μM everolimus in EtOH in the presence of 10 μM test compound and autophagy inhibition was monitored as a decline in autophagic vacuoles and the corresponding fluorescent signal. […]

HsAtg4B = target: T1, HsAtg4B (Homo sapiens, UniProt Q9Y4P1); assay: SDS-PAGE-based screening assay for Atg4B inhibition (cleavage of LC3B-GST); assay type: biochemical; details: 500 μM compound concentration; LC3B-GST substrate, 6 minutes; read-out: SDS-PAGE Enzyme inhibition (%)
T1 sequence (Q9Y4P1 1-393): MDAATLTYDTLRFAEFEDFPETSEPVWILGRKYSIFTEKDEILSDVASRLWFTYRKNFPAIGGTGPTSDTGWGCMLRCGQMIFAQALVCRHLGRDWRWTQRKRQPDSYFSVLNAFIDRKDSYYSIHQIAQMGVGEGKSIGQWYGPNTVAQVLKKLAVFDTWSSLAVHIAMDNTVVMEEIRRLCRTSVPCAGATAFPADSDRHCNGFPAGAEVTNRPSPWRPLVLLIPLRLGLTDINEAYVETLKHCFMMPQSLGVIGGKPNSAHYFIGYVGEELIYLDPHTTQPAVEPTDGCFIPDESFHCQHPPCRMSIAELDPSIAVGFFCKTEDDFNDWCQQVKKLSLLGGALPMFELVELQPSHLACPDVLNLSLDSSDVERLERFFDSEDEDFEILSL

autophagy [3] = details: cited from earlier work
autophagy [4] = assay: Cellular screening assay for autophagy inhibitors (in our hands); assay type: cell-based

recovery at 1 h, 50 µM [1] [%]	plasma stability compared to the non-halogenated analogues [1]	recovery at 30 min, 10 µM ([2]; 37° C.) [%]	microsomal stability, comparison in words [2]	SMILES	other results
19 ± 1	substantial increase	100	substantial increase	O=C(O)c1cc(O)c(=O)c2c(O)c(O)c(Br)cc2c1 [Compound 36, 2-bromo-3,4,6-trihydroxy-5-oxo-5H-benzo[7]annulene-8-carboxylic acid]	
				Cn1cnc(N)c2ncnc1-2 [Compound 3-MA, 3-Methyladenine, reference compound]	activity at 10000 µM (Jurkat T-cells): 57%
				NC(=O)c1cc(O)c(=O)c2c(O)c(O)c(F)cc2c1 [Compound 31, 2-fluoro-3,4,6-trihydroxy-5-oxo-5H-benzo[7]annulene-8-carboxamide]	inhibition at 500 µM (HsAtg4B): 39.9%
87 ± 4	substantial increase	23 ± 7	substantial increase	CCCCOC(=O)c1cc(O)c(=O)c2c(O)c(O)c(Br)cc2c1 [Compound 40, Butyl 2-bromo-3,4,6-trihydroxy-5-oxo-5H-benzo[7]annulene-8-carboxylate]	
0				O=C(O)c1cc(O)c(=O)c2c(O)c(O)ccc2c1 [Shu et al.]	autophagy inhibition reported by Shu et al. (autophagy [3]): weak autophagy inhibitor; in cellulo autophagy inhibition (reported) (autophagy [3]; in cellulo): no in cellulo autophagy inhibition; recovery at 30 min, 10 µM ([2]; value obtained using linear interpolation): 100%; activity in a cellular screening assay for autophagy inhibitors (autophagy [4]): did not show activity
